Measured values from patent US20110201564A1, “SUBSTITUTED 7-SULFANYLMETHYL, 7-SULFINYLMETHYL AND 7-SULFONYLMETHYL INDOLES AND USE THEREOF” (BAYER SCHERING PHARMA AKTIENGESELLSCHAFT, priority 2008, published 2011).
Read-outs that look alike come from different tables or passages of the source.

Molecular target: T1, CYP3A4 (Homo sapiens, UniProt P08684)
T1 construct: using human liver microsomes (pool from various individuals); from tissue; host or cells: human liver microsomes (pool from various individuals)
T1 sequence (P08684 whole entry): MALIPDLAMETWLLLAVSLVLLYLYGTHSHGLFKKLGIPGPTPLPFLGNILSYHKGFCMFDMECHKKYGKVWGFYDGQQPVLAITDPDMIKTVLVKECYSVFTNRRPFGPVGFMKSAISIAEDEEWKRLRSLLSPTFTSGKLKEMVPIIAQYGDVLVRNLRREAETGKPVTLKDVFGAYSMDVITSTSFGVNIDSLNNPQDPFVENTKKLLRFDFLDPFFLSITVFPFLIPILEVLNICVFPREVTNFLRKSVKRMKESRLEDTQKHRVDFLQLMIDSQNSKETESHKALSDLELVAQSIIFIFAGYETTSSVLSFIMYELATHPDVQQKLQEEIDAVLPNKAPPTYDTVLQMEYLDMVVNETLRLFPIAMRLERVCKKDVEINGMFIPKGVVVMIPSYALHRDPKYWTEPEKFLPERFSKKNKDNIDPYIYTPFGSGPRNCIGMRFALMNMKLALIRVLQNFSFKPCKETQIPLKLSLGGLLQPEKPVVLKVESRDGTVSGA
Assay: CYP inhibition assay with human liver microsomes
Format: in vitro ADME
Summary of the method: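 Pooled human liver microsomes (23-233 μg/mL) incubated 15-20 min at 37° C, pH 7.4 phosphate with NADP+/G6P regenerating system, isoform-specific substrate and six test compound concentrations (top 50 or 20 μM). Metabolites quantified by LC-MS/MS; IC50 versus uninhibited formation. CYP3A4 mechanism-based check: 30 min preincubation before midazolam or testosterone.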

[1] = 30 min preincubation with test compound before substrate, read-out: CYP 3A4 Preincubation, 30 min.
[2] = without preincubation, read-out: CYP 3A4 Coincubation

| SMILES | IC50 [1] [µM] | IC50 [2] [µM] |
| --- | --- | --- |
| CS(=O)(=O)Cc1cc(F)cc2c(C(c3ccc(C(F)(F)F)cc3F)C3CC3C#N)c[nH]c12 (single isomer, unassigned) [Example 271-1-1, 2-({5-Fluoro-7-[(methylsulfonyl)methyl]-1H-indol-3-yl}[2-fluoro-4-(trifluoro-methyl)phenyl]methyl)cyclopropanecarbonitrile] | 25.6 | > 40 |
| CS(=O)(=O)Cc1cccc2c(C(CCC#N)c3ccc(Cl)cc3F)c[nH]c12 (single isomer, unassigned) [Example 59-1, 4-(4-Chloro-2-fluorophenyl)-4-{7-[(methylsulfonyl)methyl]-1H-indol-3-yl}butanonitrile] | 13.1 | > 20 |
| CS(=O)(=O)Cc1cccc2c(C(CCC#N)c3ccc4c(c3)OC(F)(F)O4)c[nH]c12 (centres unmarked) [Example 169, 4-(2,2-Difluoro-1,3-benzodioxol-5-yl)-4-{7-[(methylsulfonyl)methyl]-1H-indol-3-yl}butanonitrile] | 17 | > 20 |
| CCC(CCC#N)(c1ccc(Cl)cc1)c1c[nH]c2c(CS(C)(=O)=O)cccc12 (centres unmarked) [Example 172, 4-(4-Chlorophenyl)-4-{7-[(methylsulfonyl)methyl]-1H-indol-3-yl}hexanonitrile] | 9.6 | > 20 |
| CCC(CCO)(c1ccc(Cl)cc1)c1c[nH]c2c(CS(C)(=O)=O)cccc12 (centres unmarked) [Example 147, 3-(4-Chlorophenyl)-3-{7-[(methylsulfonyl)methyl]-1H-indol-3-yl}pentan-1-ol] | 8.8 | > 20 |
| CS(=O)(=O)Cc1cc(F)cc2c(C(c3ccc(Cl)cc3F)C3CC3C#N)c[nH]c12 (single isomer, unassigned) [Example 273-1-2, 2-[(4-Chloro-2-fluorophenyl){5-fluoro-7-[(methylsulfonyl)methyl]-1H-indol-3-yl}methyl]cyclopropanecarbonitrile] | 13.7 | > 20 |
| CS(=O)(=O)Cc1cccc2c(C(CCC#N)c3ccc4sccc4c3)c[nH]c12 (centres unmarked) [Example 73, 4-(1-Benzothiophen-5-yl)-4-{7-[(methylsulfonyl)methyl]-1H-indol-3-yl}butanonitrile] | 16.6 | > 20 |
| CS(=O)(=O)Cc1cccc2c(C(c3ccc(F)cc3)c3ccc(C(F)(F)F)cc3)c[nH]c12 (centres unmarked) [Example 113, 3-{(4-Fluorophenyl) [4-(trifluoromethyl)phenyl]methyl}-7-[(methylsulfonyl)methyl]-1H-indole] | > 20 | > 20 |
| CS(=O)(=O)Cc1cccc2c(C(c3ccc(Cl)cc3)C3CC3(F)F)c[nH]c12 (single isomer, unassigned) [Example 261-1, 3-[(4-Chlorophenyl)(2,2-difluorocyclopropyl)methyl]-7-[(methylsulfonyl)methyl]-1H-indole] | 19 | > 20 |
| CS(=O)(=O)Cc1cccc2c(C3(C4CC4)CCc4cc(F)ccc43)c[nH]c12 (centres unmarked) [Example 107, 3-(1-Cyclopropyl-5-fluoro-2,3-dihydro-1H-inden-1-yl)-7-[(methylsulfonyl)methyl]-1H-indole] | 12.9 | > 20 |
